Test results taken from patent publication US12590950B2, “Methods for predicting ER-mediated DNA damage” (UNIVERSITY OF MASSACHUSETTS, priority 2019, dated 2026).

What was measured:
[1] = system: T47D cells; assay: γH2AX immunostaining (DNA damage) in T47D cells; assay type: cell-based, human
Description: Immunostaining: Cells were grown in clearing media for 48 h and plated on 20 mm coverslip in 12 well plates with a density of 2×10^5 cells/well. […] Cells were washed with 1×PBS, blocked in 2% BSA/PBS with 0.1% Triton-X 100 for 1 hr at room temperature (RT), incubated overnight with γH2AX antibody (Cell Signaling #9718 S) or ERα antibody (Santa Cruz Biotechnology #sc-8002) at 4° C. and 1 hour with secondary antibody. S9.6: Cells were fixed in ice-cold 100% methanol for 10 min at −20° C., permeabilized in 100% acetone for 1 min at RT, blocked for 30 min in saline sodium citrate pH 7 (SSC, 4×), 3% BSA, 0.1% Triton-X and incubated with S9.6 (Kerafast #ENH001) 2 hr at RT followed by 1 h with secondary antibody. If indicated, slides were treated with RNase H (NEB #M0297L) for 4 hr at 37° C. prior to incubation with primary antibody. Stained cells were mounted with Vectashield mounting medium containing DAPI (Vector Laboratories #H-1200). Slides were imaged at 60× (immersion oil) with Nikon A1 Spectral Confocal microscope. Analysis of γH2AX and S9.6 intensity per nucleus or foci per nucleus was calculated using Nikon analysis software, where DAPI was used as a mask for the nucleus.

[2] = system: TFF1; assay: RT-qPCR of estrogen-responsive gene TFF1 in T47D cells; assay type: cell-based, human; details: fulvestrant 1 μM with 10 nM E2, T47D
Description: RT-qPCR: RNA from T47D cells, MCF-7 Cells or flash-frozen 4th mammary gland was isolated with TRIzol (Thermofisher Scientific #15596018) and Direct-zol RNA MiniPrep Plus (Zymo Research #R2072). cDNA was prepared with Protoscript II First Strand cDNA Synthesis Kit (New England Biolabs #E6560S) and qPCR for TFF1, progesterone receptor (PGR) and Amphiregulin (AREG) was performed on CFX96 Real-Time System thermocycler (Bio-Rad) using primers in Table 1.

[3] = system: ER; details: compared to BP3; cited from earlier work

Row | Compound | effect on E2-induced γH2AX intensity ([1]; fulvestrant 1 μM with 10 nM E2, T47D) | effect on γH2AX intensity in response to 5 μM BP3 and 5 μM PP ([1]; fulvestrant 1 μM, T47D) | effect on transcriptional responses (TFF1) to E2 [2] | ER transactivation potential [3]
1 | C[C@]12CC[C@@H]3c4ccc(O)cc4C[C@@H](CCCCCCCCC[S+]([O-])CCCC(F)(F)C(F)(F)F)[C@H]3[C@@H]1CC[C@@H]2O (stereo partly shown) [fulvestrant] | significantly reduced | inhibited | blocked | –
2 | O=C(c1ccccc1)c1ccc(O)cc1O [2,4-diOH-BP] | – | – | – | higher ER transactivation potential compared to BP3
